A word on the IC50: it is the midpoint of a concentration-inhibition curve.

IC50 data for 28 molecules are collected here from patent publication US11311520B2, “Substituted dihydroimidazopyridinediones as MKNK1 and MKNK2 inhibitors” (Bayer Pharma Aktiengesellschaft, priority 2017, dated 2022).

Where a name gives a salt, the structure may show the parent alone.

The target of the assay is human full-length MKNK1 (Homo sapiens (Human), UniProt Q9BUB5, T344D). Briefly: MKNK1 kinase high ATP assay (TR-FRET). Type of assay: biochemical. The note with it: 2 mM ATP, 15 min preincubation with enzyme, GST-MKNK1 (T344D). The gist of the method:
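GST-tagged full-length human MKNK1 (1-424, T344D, baculovirus-expressed) preincubated 15 min at 22 °C with compound, then reacted 30 min at 22 °C with 2 mM ATP and 0.06 μM biotinylated peptide (final) in HEPES pH 7.5. Phospho-substrate by TR-FRET (665/622 nm ratio), normalised to no-inhibitor and no-enzyme controls.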
A general note: In TR-FRET formats the signal depends on donor and acceptor labels being close together.

human full-length MKNK1, sequence (Q9BUB5 other isoform, or with tags, fused parts or gaps T344D): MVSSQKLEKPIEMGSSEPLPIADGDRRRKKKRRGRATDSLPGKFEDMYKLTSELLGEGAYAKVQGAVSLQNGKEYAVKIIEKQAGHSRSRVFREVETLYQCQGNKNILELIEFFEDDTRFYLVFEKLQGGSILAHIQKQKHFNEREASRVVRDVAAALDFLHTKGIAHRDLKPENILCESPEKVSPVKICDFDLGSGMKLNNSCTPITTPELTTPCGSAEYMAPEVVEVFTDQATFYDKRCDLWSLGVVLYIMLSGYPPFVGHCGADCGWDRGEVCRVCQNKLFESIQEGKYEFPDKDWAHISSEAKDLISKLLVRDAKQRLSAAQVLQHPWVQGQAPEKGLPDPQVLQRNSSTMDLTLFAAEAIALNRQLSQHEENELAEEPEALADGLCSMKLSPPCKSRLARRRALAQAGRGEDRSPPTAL

`Cc1cc(Nc2ncnc3sc(C(=O)N4C[C@H]5C[C@@H]4CO5)cc23)c(=O)n2c1C(=O)NC21CCCC1` [Example 96, 8′-Methyl-6′-({6-[(1R,4R)-2-oxa-5-azabicyclo[2.2.1]hept-5-ylcarbonyl]thieno[2,3-d]pyrimidin-4-yl}amino)-2′H-spiro[cyclopentane-1,3′-imidazo[1,5-a]pyridine]-1′,5′-dione] yielded an IC50 of 3.9 nM.

Take `CCNC(=O)N1Cc2ncnc(Nc3cc(C)c4n(c3=O)C3(CCCCC3)NC4=O)c2C1` [Example 75, N-Ethyl-4-[(8′-methyl-1′,5′-dioxo-1′,5′-dihydro-2′H-spiro[cyclohexane-1,3′-imidazo[1,5-a]pyridin]-6′-yl)amino]-5,7-dihydro-6H-pyrrolo[3,4-d]pyrimidine-6-carboxamide]: half-maximal inhibition (IC50) required 11.9 nM.

`Cc1cc(Nc2ncnc3[nH]ccc23)c(=O)n2c1C(=O)NC21CCSCC1` [Example 196, 8-methyl-6-(7H-pyrrolo[2,3-d]pyrimidin-4-ylamino)-2′,3′,5′,6′-tetrahydro-2H-spiro[imidazo[1,5-a]pyridine-3,4′-thiopyran]-1,5-dione] registered an IC50 of 0.5 nM.

Molecule `Cc1cc(Nc2ncnc3[nH]ccc23)c(=O)n2c1C(=O)NC21CCCCC1` [Example 6, 8′-Methyl-6′-(7H-pyrrolo[2,3-d]pyrimidin-4-ylamino)-2′H-spiro[cyclohexane-1,3′-imidazo[1,5-a]pyridine]-1′,5′-dione] had an IC50 of 0.3 nM.

`Cc1cc(Nc2ncnc3c2CN(C(=O)OC(C)(C)C)C3)c(=O)n2c1C(=O)NC2(C)C` [Example 163, tert-Butyl 4-[(3,3,8-trimethyl-1,5-dioxo-1,2,3,5-tetrahydroimidazo[1,5-a]pyridin-6-yl)amino]-5,7-dihydro-6H-pyrrolo[3,4-d]pyrimidine-6-carboxylate]: the IC50 was determined as 16.8 nM.

`Cc1cc(Nc2ncnc3cc(F)ccc23)c(=O)n2c1C(=O)NC21CCCCC1` [Example 112, 6′-[(7-Fluoroquinazolin-4-yl)amino]-8′-methyl-2′H-spiro[cyclohexane-1,3′-imidazo[1,5-a]pyridine]-1′,5′-dione] came in with an IC50 of 25.3 nM.

`Cc1cc(Nc2ncnc3[nH]ncc23)c(=O)n2c1C(=O)NC2(C)C` [Example 133, 3,3,8-Trimethyl-6-(1H-pyrazolo[3,4-d]pyrimidin-4-ylamino)-2,3-dihydroimidazo[1,5-a]pyridine-1,5-dione] returned an IC50 of 10.1 nM.

In turn, `Cc1cc(Nc2ncnc3ccc(Cl)cc23)c(=O)n2c1C(=O)NC21CCC(F)(F)CC1` [Example 99, 6′-[(6-chloroquinazolin-4-yl)amino]-4,4-difluoro-8′-methyl-2′H-spiro[cyclohexane-1,3′-imidazo[1,5-a]pyridine]-1′,5′-dione] gave an IC50 of 18.8 nM.

`Cc1cc(Nc2ncnc3ccc(Cl)cc23)c(=O)n2c1C(=O)NC21CCSCC1` [Example 197, 6-[(6-chloroquinazolin-4-yl)amino]-8-methyl-2′,3′,5′,6′-tetrahydro-2H-spiro[imidazo[1,5-a]pyridine-3,4′-thiopyran]-1,5-dione]: the IC50 came to 14.9 nM.

The molecule `Cc1cc(Nc2ncnc3[nH]ccc23)c(=O)n2c1C(=O)NC2(C)C` [Example 132, 3,3,8-Trimethyl-6-(7H-pyrrolo[2,3-d]pyrimidin-4-ylamino)-2,3-dihydroimidazo[1,5-a]pyridine-1,5-dione] displayed an IC50 of 0.7 nM.

The molecule `Cc1cc(Nc2ncnc3sc(C(=O)NCCN(C)C)cc23)c(=O)n2c1C(=O)NC21CCC1` [Example 151, N-[2-(Dimethylamino)ethyl]-4-[(8′-methyl-1′,5′-dioxo-1′,5′-dihydro-2′H-spiro[cyclobutane-1,3′-imidazo[1,5-a]pyridin]-6′-yl)amino]thieno[2,3-d]pyrimidine-6-carboxamide] showed an IC50 of 4 nM.

The molecule `Cc1cc(Nc2ncnc(NC(=O)C3CC3)n2)c(=O)n2c1C(=O)NC21CCC1` [Example 146, N-{4-[(8′-Methyl-1′,5′-dioxo-1′,5′-dihydro-2′H-spiro[cyclobutane-1,3′-imidazo[1,5-a]pyridin]-6′-yl)amino]-1,3,5-triazin-2-yl}cyclopropanecarboxamide] yielded an IC50 of 8.2 nM.

Where the note is “hydrochloride”, `Cc1cc(Nc2ncnc3sc(C(=O)N(C)C)cc23)c(=O)n2c1C(=O)NC21CCCCC1` [Example 33, N,N-Dimethyl-4-[(8′-methyl-1′,5′-dioxo-1′,5′-dihydro-2′H-spiro[cyclohexane-1,3′-imidazo[1,5-a]pyridin]-6′-yl)amino]thieno[2,3-d]pyrimidine-6-carboxamide hydrochloride] returned an IC50 of 70.7 nM.

With `Cc1cc(Nc2ncnc3sc(C(=O)N(C)CCN(C)C)cc23)c(=O)n2c1C(=O)NC21CCCC1` [Example 60, N-[2-(Dimethylamino)ethyl]-N-methyl-4-[(8′-methyl-1′,5′-dioxo-1′,5′-dihydro-2′H-spiro[cyclopentane-1,3′-imidazo[1,5-a]pyridin]-6′-yl)amino]thieno[2,3-d]pyrimidine-6-carboxamide], half-maximal inhibition (IC50) was put at 6.3 nM.

For the molecule `Cc1cc(Nc2ccnc3ccccc23)c(=O)n2c1C(=O)NC21CCCCC1` [Example 4, 8′-Methyl-6′-(quinolin-4-ylamino)-2′H-spiro[cyclohexane-1,3′-imidazo[1,5-a]pyridine]-1′,5′-dione], the IC50 was 306 nM.

Take `Cc1cc(Nc2ncnc3c2CNC3)c(=O)n2c1C(=O)NC21CCC1` [Example 168, 6′-(6,7-Dihydro-5H-pyrrolo[3,4-d]pyrimidin-4-ylamino)-8′-methyl-2′H-spiro[cyclobutane-1,3′-imidazo[1,5-a]pyridine]-1′,5′-dione]: the IC50 was 49.5 nM.

`Cc1cc(Nc2ncnc3sc(C(=O)O)c(C)c23)c(=O)n2c1C(=O)NC2(C)C` [Example 145, 5-Methyl-4-[(3,3,8-trimethyl-1,5-dioxo-1,2,3,5-tetrahydroimidazo[1,5-a]pyridin-6-yl)amino]thieno[2,3-d]pyrimidine-6-carboxylic acid]: inhibition was half-maximal at 115 nM (IC50).

On to `Cc1cc(Nc2ncnc3sc(C(N)=O)cc23)c(=O)n2c1C(=O)NC21CCCC1` [Example 102, 4-[(8′-Methyl-1′,5′-dioxo-1′,5′-dihydro-2′H-spiro[cyclopentane-1,3′-imidazo[1,5-a]pyridin]-6′-yl)amino]thieno[2,3-d]pyrimidine-6-carboxamide], for which the IC50 was 5.7 nM.

With `Cc1cc(Nc2ncnc3[nH]cnc23)c(=O)n2c1C(=O)NC21CCC1` [Example 159, 8′-Methyl-6′-(9H-purin-6-ylamino)-2′H-spiro[cyclobutane-1,3′-imidazo[1,5-a]pyridine]-1′,5′-dione], half-maximal inhibition (IC50) required 2.1 nM.

In turn, `Cc1cc(Nc2ncnc(N)n2)c(=O)n2c1C(=O)NC21CCC1` [Example 147, 6′-[(4-Amino-1,3,5-triazin-2-yl)amino]-8′-methyl-2′H-spiro[cyclobutane-1,3′-imidazo[1,5-a]pyridine]-1′,5′-dione] had a half-maximal inhibitory concentration (IC50) of 12.7 nM.

The molecule `Cc1cc(Nc2ncnc3[nH]ccc23)c(=O)n2c1C(=O)NC21CCC(F)(F)CC1` [Example 91, 4,4-Difluoro-8′-methyl-6′-(7H-pyrrolo[2,3-d]pyrimidin-4-ylamino)-2′H-spiro[cyclohexane-1,3′-imidazo[1,5-a]pyridine]-1′,5′-dione methanesulfonate] had an IC50 (methanesulfonate) of 1.1 nM.

In turn, `Cc1cc(Nc2ncnc3sc(C(=O)N4CC[C@@H](N(C)C)C4)cc23)c(=O)n2c1C(=O)NC21CCCCC1` [Example 29, 6′-[(6-{[(3R)-3-(Dimethylamino)pyrrolidin-1-yl]carbonyl}thieno[2,3-d]pyrimidin-4-yl)amino]-8′-methyl-2′H-spiro[cyclohexane-1,3′-imidazo[1,5-a]pyridine]-1′,5′-dione] displayed an IC50 of 2.9 nM.

`Cc1cc(Nc2ncnc3cccc(C)c23)c(=O)n2c1C(=O)N[C@]21CC[C@@](O)(C(F)(F)F)CC1` [Example 188, (cis)-4-hydroxy-8′-methyl-6′-[(5-methylquinazolin-4-yl)amino]-4-(trifluoromethyl)-2′H-spiro[cyclohexane-1,3′-imidazo[1,5-a]pyridine]-1′,5′-dione] yielded an IC50 of 47 nM.

In turn, `Cc1cc(Nc2ncnc3ccc(Cl)cc23)c(=O)n2c1C(=O)NC21CCC1` [Example 167, 6′-[(6-Chloroquinazolin-4-yl)amino]-8′-methyl-2′H-spiro[cyclobutane-1,3′-imidazo[1,5-a]pyridine]-1′,5′-dione] gave an IC50 of 5.7 nM.

For `Cc1cc(Nc2ncnc3sc(C(=O)NCCN(C)C)cc23)c(=O)n2c1C(=O)NC21CCC(F)(F)CC1` [Example 81, 4-[(4,4-Difluoro-8′-methyl-1′,5′-dioxo-1′,5′-dihydro-2′H-spiro[cyclohexane-1,3′-imidazo[1,5-a]pyridin]-6′-yl)amino]-N-[2-(dimethylamino)ethyl]thieno[2,3-d]pyrimidine-6-carboxamide], the IC50 is 5 nM.

`Cc1cc(Nc2ncnc3[nH]ccc23)c(=O)n2c1C(=O)NC21CCC1` [Example 148, 8′-Methyl-6′-(7H-pyrrolo[2,3-d]pyrimidin-4-ylamino)-2′H-spiro[cyclobutane-1,3′-imidazo[1,5-a]pyridine]-1′,5′-dione] returned an IC50 of 0.4 nM.

In turn, `Cc1cc(Nc2ncnc3sc(C(=O)N4CC[C@@H](N(C)C)C4)cc23)c(=O)n2c1C(=O)NC21CCC(F)(F)CC1` [Example 86, 6′-[(6-{[(3R)-3-(Dimethylamino)pyrrolidin-1-yl]carbonyl}thieno[2,3-d]pyrimidin-4-yl)amino]-4,4-difluoro-8′-methyl-2′H-spiro[cyclohexane-1,3′-imidazo[1,5-a]pyridine]-1′,5′-dione] had an IC50 of 11.9 nM.

Turning to `Cc1cc(Nc2ncnc3cccc(C)c23)c(=O)n2c1C(=O)NC21CS(=O)(=O)C1` [Example 179, 8-methyl-6-[(5-methylquinazolin-4-yl)amino]-2H-spiro[imidazo[1,5-a]pyridine-3,3′-thietane]-1,5-dione 1′,1′-dioxide], the IC50 is 124 nM.
